# Laboratory results reported in PMC8004929, “Whole-Body Pharmacokinetics and Physiologically Based Pharmacokinetic Model for Monomethyl Auristatin E (MMAE)” (Journal of Clinical Medicine, 2021).
# Square brackets hold non-standard residues; d marks the D form. Peptide text beside a SMILES is read from it. * marks the point of attachment. Dolaproine = CO[C@@H]([C@@H]1CCCN1)[C@@H](C)C(=O)O; Dil = CC[C@H](C)[C@H](NC)[C@@H](CC(=O)O)OC; X1 = C[C@@H](N*)[C@@H](O)c1ccccc1; NMeV = CN[C@H](C(=O)O)C(C)C
# Assays:
# [1] = cited from earlier work
# From the text: The PK profile of MMAE in plasma dropped rapidly, while concentrations in tissues were retained for a prolonged period of time. This could be because of the binding of MMAE to its intracellular target, tubulin. […] Since plasma and tissue concentration profiles were not parallel, plasma exposure ...
# [2] = tested on: tumor cells; details: cited from earlier work
# From the text: Table 1 A glossary of literature-derived and estimated parameters used for the MMAE PBPK model. | column: Value
# [3] = Whole-body biodistribution / PK study of MMAE in tumor-bearing mice (LC-MS/MS, NCA); assay type: in vivo; details: 0.1 mg/kg i.v.; for AUC0−t: observed conc. by LC-MS/MS, 3 mice per time point; for KPadj: KP adjusted for percentage of cellular volume in total tissue volume
# From the text: Male athymic nude mice were purchased at the age of 6 weeks from Charles River (Wilmington, NC, USA). After acclimation to the new conditions for two weeks, mice were subcutaneously injected with MDA-MB-468 (about 10 million tumor cells) into the right dorsal flank. The in vivo study adhered to the Principles of Laboratory Animal Care (National Institutes of Health publication 85–23, revised 1985) and were approved by the University at Buffalo Institutional Animal Care and Use Committee (IACUC# PHC29035Y).
# A total of 18 mice (6 weeks old, 26–35 g) bearing MDA-MB-468 xenografts were used for the biodistribution studies. Then, 0.1 mg/kg MMAE was injected into the mice via the penile vein, and terminal samples were collected at 5 min and 1, 6, 12, 24, and 168 h. Three mice were sacrificed at each time point. Whole blood, tissue, and tumor were harvested. The collected tissues included the heart, liver, lung, spleen, pancreas, kidney, skin, bone, muscle, fat, and brain. Whole blood samples in ethylenediaminetetraacetic acid (EDTA) pre-coated tubes were centrifuged at 2000× g for 20 min at 4 °C, and plasma was collected and stored at −20 °C for further analysis. Harvested tissue samples were blotted dry and immediately frozen in liquid nitrogen and stored at −80 °C until homogenization.
# A detailed tissue homogenization procedure has been reported previously. Briefly, different volumes of RIPA buffer containing protease inhibitor were added into the weighted tissue samples to obtain different dilution factors in each tissue. The dilution factor was 5 for heart, liver, lung, spleen, pancreas, kidney, skin, and fat, 8 for bone and muscle, and 4 for brain samples. Tissue samples were homogenized using a BeadBug™ microtube homogenizer (Benchmark, USA) at the maximum speed for 15 s followed by a 30-s ice cool down, and repeated three times. Blood samples without dilution were directly homogenized for 30 s at maximum speed and were treated the same way as tissue samples.
# Then, 500 µL acetonitrile containing 0.1% formic acid was added into 100 µL of plasma, tissue, or tumor homogenate samples and then spiked with 20 µL of IS solution (D8-MMAE 150 ng/mL). After vortexing and centrifugation at 15,000× g for 15 min at 4 °C, the supernatants were transferred to glass tubes and dried under nitrogen flow at 32 °C. The dried residuals were reconstituted with 60 µL of acetonitrile/water (95:5 v/v) containing 0.1% formic acid, gently vortexed, and immediately transferred into HPLC vials.
# Standards and quality control samples (QCs) were prepared for plasma and each tissue matrix. Then, 250 µL of the control plasma or matrices were spiked with 20 µL of IS solution (D8-MMAE 150 ng/mL) and 10 µL of MMAE stock solution diluted with acetonitrile, and then, 500 µL of acetonitrile containing 0.1% formic acid was added. The final concentrations of standard were 0.5, 1, 10, 100, 200, and 500 ng/mL. QCs were prepared similarly for the final concentrations of […].
# A Waters Acquity LC-MS/MS system was used with electrospray interphase and triple quadrupole mass spectrometer. An ACQUITY UPLC BEH Amide column (Waters, Milford, MA, USA) was used with 5 mM ammonium formate and 0.1% formic acid as the aqueous phase, and 0.1% formic acid and 1 mM ammonium formate were used as the organic phase. The gradient flow rate was 0.25 mL/min. The lower limit of quantification of MMAE was […] (or ng/g) for plasma, blood, tissues, and tumor.
# Noncompartmental analysis (NCA) was conducted for plasma PK data. AUC computed from time 0 to the last observed concentration time (AUC0−t) was calculated using the linear/log trapezoidal method in WinNonlin (version 8.1, Pharsight, St. Louis, MO, USA). Blood to plasma ratios ( KP,BC ) and tissue partition coefficients ( KP,i ) were calculated using Equation (1), using AUC0−t values derived from the observed data. (1) KP,BC or KP,i=AUCi,0−t/AUCp,0−t, […]
# [4] = NCA of plasma, tumor-bearing mice
compound,measurement,setting,value
"CC[C@H](C)[C@@H]([C@@H](CC(=O)N1CCC[C@H]1[C@H](OC)[C@@H](C)C(=O)N[C@H](C)[C@@H](O)c1ccccc1)OC)N(C)C(=O)[C@@H](NC(=O)[C@@H](NC)C(C)C)C(C)C [MMAE, Monomethyl auristatin E] (H-[NMeV]V[Dil][Dolaproine]-X1)","half-life of MMAE, reported value",[1],5.7 h
same,"kout, first-order efflux rate of MMAE from intracellular to extracellular space",[2],0.046 h⁻¹
same,"ε, tumor void volume for MMAE",[2],0.44
same,"D, diffusion rate across the blood vessels",[2]; tumor,0.0104 cm^2/h
same,KP (tissue-to-plasma partition coefficient),"[3]; MDA-MB-468 tumor AUC0−t / plasma AUC0−t, tumor-bearing mice",8.21
same,AUC0−t,"[3]; MDA-MB-468 tumor, tumor-bearing mice",0.619 µM·h
same,half-life,[3]; [4],2.5 h
same,systemic CL,[3]; [4],60 mL/h
same,volume of distribution (Vss),[3]; [4],42 mL
same,plasma AUC from 0 to 12 h,"[3]; NCA, tumor-bearing mice",54.3 ng·h/mL
same,plasma AUC from 0 to infinite,"[3]; NCA, tumor-bearing mice",54.5 ng·h/mL
same,injected dose remaining in plasma,"[3]; after 5 min, tumor-bearing mice",0.3%
same,blood-to plasma ratio,"[3]; at 6 h, tumor-bearing mice",≈ 20
same,KP (partition coefficient),"[3]; blood (blood cell) AUC0−t / plasma AUC0−t, tumor-bearing mice",5.46
same,KPadj,"[3]; blood, tumor-bearing mice",5.46
same,AUC0−t,"[3]; blood, MDA-MB-468 tumor-bearing mice",0.414 µM·h
same,KPadj,"[3]; bone, tumor-bearing mice",1.89
same,AUC0−t,"[3]; bone, MDA-MB-468 tumor-bearing mice",0.11 µM·h
same,KP (tissue-to-plasma partition coefficient),"[3]; brain AUC0−t / plasma AUC0−t, tumor-bearing mice",0.411
same,KPadj,"[3]; brain, tumor-bearing mice",0.530
same,AUC0−t,"[3]; brain, MDA-MB-468 tumor-bearing mice",0.0312 µM·h
same,blood-to plasma ratio,"[3]; early time-points (<30 min), tumor-bearing mice",about 6
same,KP (tissue-to-plasma partition coefficient),"[3]; fat AUC0−t / plasma AUC0−t, tumor-bearing mice",2.43
same,KPadj,"[3]; fat, tumor-bearing mice",3.01
same,AUC0−t,"[3]; fat, MDA-MB-468 tumor-bearing mice",0.184 µM·h
same,decrease of MMAE concentration in the tumor,"[3]; from 1 to 168 h, MDA-MB-468 tumor, mice",50%
same,KP (tissue-to-plasma partition coefficient),"[3]; heart AUC0−t / plasma AUC0−t, tumor-bearing mice",17.9
same,KPadj,"[3]; heart, tumor-bearing mice",22.8
same,AUC0−t,"[3]; heart, MDA-MB-468 tumor-bearing mice",1.356 µM·h
same,KP (tissue-to-plasma partition coefficient),"[3]; kidney AUC0−t / plasma AUC0−t, tumor-bearing mice",31.6
same,KPadj,"[3]; kidney, tumor-bearing mice",42.4
same,AUC0−t,"[3]; kidney, MDA-MB-468 tumor-bearing mice",2.396 µM·h
same,KP (tissue-to-plasma partition coefficient),"[3]; liver AUC0−t / plasma AUC0−t (apparent, not adjusted for CLint), tumor-bearing mice",2.42
same,KPadj,"[3]; liver, tumor-bearing mice",3.80
same,AUC0−t,"[3]; liver, MDA-MB-468 tumor-bearing mice",0.176 µM·h
same,"exposure relative to plasma exposure, highly perfused tissues","[3]; lung > spleen > liver > heart, tumor-bearing mice",> 15 fold
same,KP (tissue-to-plasma partition coefficient),"[3]; lung AUC0−t / plasma AUC0−t, tumor-bearing mice",35.3
same,KPadj,"[3]; lung, tumor-bearing mice",64.9
same,AUC0−t,"[3]; lung, MDA-MB-468 tumor-bearing mice",2.679 µM·h
same,KP (tissue-to-plasma partition coefficient),"[3]; muscle AUC0−t / plasma AUC0−t, tumor-bearing mice",1.25
same,KPadj,"[3]; muscle, tumor-bearing mice",1.51
same,AUC0−t,"[3]; muscle, MDA-MB-468 tumor-bearing mice",0.0946 µM·h
same,KP (tissue-to-plasma partition coefficient),"[3]; pancreas AUC0−t / plasma AUC0−t, tumor-bearing mice",2.11
same,KPadj,"[3]; pancreas, tumor-bearing mice",2.93
same,AUC0−t,"[3]; pancreas, MDA-MB-468 tumor-bearing mice",0.16 µM·h
same,AUC0−t,"[3]; plasma, MDA-MB-468 tumor-bearing mice, linear/log trapezoidal",0.0754 µM·h
same,KP (tissue-to-plasma partition coefficient),"[3]; skin AUC0−t / plasma AUC0−t, tumor-bearing mice",1.71
same,KPadj,"[3]; skin, tumor-bearing mice",2.87
same,AUC0−t,"[3]; skin, MDA-MB-468 tumor-bearing mice",0.13 µM·h
same,KP (tissue-to-plasma partition coefficient),"[3]; spleen AUC0−t / plasma AUC0−t, tumor-bearing mice",27.1
same,KPadj,"[3]; spleen, tumor-bearing mice",47.2
same,AUC0−t,"[3]; spleen, MDA-MB-468 tumor-bearing mice",2.056 µM·h
same,"KP in the liver after accounting for CLint, without adjustments for the fractional cellular volume",[3]; tumor-bearing mice,25.3
same,"exposure relative to plasma exposure, fat, pancreas, skin, bone, and muscle",[3]; tumor-bearing mice,about 2 fold
same,time up to which MMAE concentration in the liver was quantifiable,"[3]; tumor-bearing mice, LLOQ 0.2 ng/g",6 h
same,Plasma concentration after 12 h,"[3]; tumor-bearing mice, LLOQ 0.2 ng/mL, LC-MS/MS",below the limit of quantification
